Measured values from patent publication US20250177340A1, “Tartaric Acid Analogs and Uses Thereof” (Lapix Therapeutics, Inc., priority 2021, published 2025).

Assays:
B16F10 melanoma cells = experiment: Dose-dependent tumor regression in established B16F10 tumors (Example 15); format: in vivo, C57BL6 mice
Description: C57BL6 mice received 10^5 B16F10 melanoma cells via SC injection at day 0. Tumor growth was monitored until tumor size reached 200 to 300 mm^3, at which time the mouse was randomized into one of the treatment groups or the control group. Mice were dosed orally until the end of the study.

[1] = tested on: KLRG-1, CTLA-4, TIM-3, PD-1, IFNγ/Granzyme B, FoxP3; experiment: Ex vivo flow cytometry of splenocytes after seven doses, murine melanoma model (Example 13); format: in vivo, mice; details: 7 doses, Compound B 4 mg/mouse PO QD, Compound C 2.5 mg/mouse IV QD; for inhibition of CTLA-4 as compared to control / inhibition of KLGR-1 as compared to control / inhibition of PD-1 as compared to control / inhibition of TIM-3 as compared to control: CD8+ splenocytes, one mouse per group
Description: This study was designed to evaluate the effects of Compound B and Compound C on tumor growth and the overall survival of animals implanted SC with 10^5 melanoma cells. Furthermore, ex vivo analysis of splenocytes at the end of dosing was used to evaluate change in the T-cell population and function. FIG. 8A is a diagram of the study design.
Animals were housed four per cage and had access to food and water ad libitum. Compound B was dissolved in sterile PBS, and pH was adjusted to approximately 7.5. Compound C was first dissolved in DMSO before diluting in sterile PBS. Sterile PBS was used as a control. Compound B was dosed at 4 mg/mouse PO QD. This dose was expected to result in an exposure equivalent to a 1 mg/mouse IV dose. Compound C was dosed at 2.5 mg/mouse IV.
B16F10 melanoma cells were grown in RPMI 1640 media supplemented with 10% FBS and antibiotics (penicillin/streptomycin) using T75 flasks. When cells reached 70-80% confluency, they were treated with 3 ml of 0.25% trypsin/EDTA. Detached cells were harvested. A single-cell suspension was prepared in PBS. A dorsal SC injection of 10^5 cells in mice marked day 0 of the experiment. Animals were monitored daily, and tumors were measured twice a week.
For tumor growth inhibition, animals were divided into 3 groups. The control group received an IV injection of PBS to match the start time, dosing volume, and dosing frequency of the Compound C treatment group. The treatment group received 100 μl of 4 mg/mouse PO QD of Compound B for 7 days starting at day 7 after tumor implantation, or 2.5 mg/mouse IV QD of Compound C. The endpoint was reached when the tumor reached 1 cm^3. Tumor volume was calculated using the following formula: […]
On day 14, one mouse from each group was sacrificed for ex vivo analysis. One animal with an average tumor size was selected from the control group and the Compound B treatment group. Since no animals in the Compound C treatment group had any visible tumors by day 14, one mouse was selected at random from the Compound C treatment group.
Spleens were collected and a single-cell suspension was prepared for cellular phenotyping by flow cytometry. Cells were stained and gated for CD8. IFNγ, Granzyme B (GzmB), KLRG-1, CTLA-4, TIM-3, and PD-1 expression was evaluated. Cells gated for CD4 were evaluated for FoxP3 expression.

CTLA-4 = experiment: Percent CTLA-4+/CD8+ T-cells in splenocytes after a single dose, melanoma murine model; format: in vivo, mice
Description: (§1) The pharmacodynamic (PD) effects of a single IV dose of Compound B in a melanoma murine model were evaluated. B16F10 melanoma cells were grown in RPMI 1640 media supplemented with 10% FBS and antibiotics (penicillin/streptomycin) using T75 flasks. When cells reached 70-80% confluency, they were treated with 3 ml of 0.25% Trypsin/EDTA. Afterward, detached cells were harvested. A single-cell suspension was prepared in PBS. An IV injection of 10^5 cells in mice marked day −3 of the experiment.
(§2) Animals were housed four per cage, and had access to food and water ad libitum. Compound B was dissolved in sterile PBS, and pH was adjusted to approximately 7.5. Sterile PBS served as control.
(§3) Three days after the IV injection of melanoma cells, animals in the baseline group (n=3) were sacrificed and their spleens were collected for KLRG-1, CTLA-4, and PD-1 analysis. At each predetermined time-point (24, 48, and 120 hours after dosing) three animals from each group were sacrificed for splenocyte analysis of KLRG-1, CTLA-4, and PD-1 expression levels, and expression levels were compared to baseline.
(§4) Spleens collected for splenocyte analysis were prepared into a single-cell suspension for cellular phenotyping by flow cytometry. Cells were stained and gated for CD8. Percent KLRG-1+, CTLA-4+, and PD-1+ CD8+ T-cells were evaluated using flow cytometry.

melanoma cells = experiment: Tumor growth inhibition and overall survival, two doses of Compound B (Example 14); format: in vivo, mice
Description: This study was designed to evaluate the effects of two different doses of Compound B on tumor growth and the overall survival of animals implanted SC with 10^5 melanoma cells. The study was carried out in accordance with the study described in Example 13, except that mice received either placebo, 0.4 mg/mouse PO QD of Compound B for seven days starting at day 7 after tumor implantation, or 4 mg/mouse PO QD of Compound B for seven days starting at day 7 after tumor implantation.

KLRG-1 = experiment: Percent KLRG-1+/CD8+ T-cells in splenocytes after a single dose, melanoma murine model; format: in vivo, mice
Description: as §1, §2, §3, §4
The PD effects of a single IV dose of Compound C were evaluated in a melanoma murine model conducted as described in Example 10. […] This study also evaluated whether Compound C was pharmacodynamically active orally.
In a prior study, Compound C was dosed at 1 mg IV QD for seven days. […] A single PO dose was chosen to confirm oral activity of Compound C. Compound C was dissolved in DMSO, and then diluted in sterile PBS. pH was adjusted to approximately 7.5.
The oral and intravenous PD effects of a single dose of Compound E were evaluated in a melanoma murine model conducted as described in Example 10.
Compound E was dissolved in DMSO, and then diluted in sterile PBS. pH was adjusted to approximately 7.5.

[2] = 0.14 mg/mouse IV single dose, 24 h
[3] = 0.14 mg/mouse IV single dose, 48 h
[4] = 0.14 mg/mouse IV single dose, 120 h
[5] = 0.7 mg/mouse IV single dose, 24 h
[6] = 0.7 mg/mouse IV single dose, 48 h
[7] = 0.7 mg/mouse IV single dose, 120 h
[8] = 1.4 mg/mouse IV single dose, 24 h
[9] = 1.4 mg/mouse IV single dose, 48 h
[10] = 1.4 mg/mouse IV single dose, 120 h

O=C(O)[C@H](O)[C@@H](O)C(=O)OCCCc1ccccc1 [Compound B, (2R,3R)-2,3-dihydroxy-4-oxo-4-(3-phenylpropoxy)butanoic acid] was tested, and the “day by which all animals died of disease” value (B16F10 melanoma cells; 0.1 mg PO, tumors 200 to 300 mm^3 at start) was at most 20 days, the “day by which animals died” value (B16F10 melanoma cells; 0.4 mg PO) was at most 30 days and the “tumor progression versus low-dose group and untreated mice” value (B16F10 melanoma cells; 0.4 mg PO) was “progressed more slowly”. For the same compound, the tumor growth (B16F10 melanoma cells; 1 mg PO) was “Tumor growth control was observed early on”, the tumor growth (B16F10 melanoma cells; 4 mg PO) was “Tumor regression was observed” and the “decrease in FoxP3 positive CD4+ T-cells compared to placebo” value [1] was 1.5%. For the same compound, the “increase in GrzmB/INFγ double-positive CD8+ T-cells compared to placebo” value [1] was 25%, the “inhibition of CTLA-4 as compared to control” value [1] was 42% and the “inhibition of KLGR-1 as compared to control” value [1] was 55%. For the same compound, the “inhibition of PD-1 as compared to control” value [1] was 13%, the “inhibition of TIM-3 as compared to control” value [1] was 63% and the “CTLA-4+/CD8+ T-cells, mean” value (CTLA-4; [2]) was 9.8%. For the same compound, the “CTLA-4+/CD8+ T-cells, mean” value (CTLA-4; [3]) was 5.3%, the “CTLA-4+/CD8+ T-cells, mean” value (CTLA-4; [4]) was 11.9% and the “CTLA-4+/CD8+ T-cells, mean” value (CTLA-4; [5]) was 8.5%. The “CTLA-4+/CD8+ T-cells, mean” value (CTLA-4; [6]) was 5.7%, the “CTLA-4+/CD8+ T-cells, mean” value (CTLA-4; [7]) was 12.5% and the “CTLA-4+/CD8+ T-cells, mean” value (CTLA-4; [8]) was 7.4%. For the same compound, the “CTLA-4+/CD8+ T-cells, mean” value (CTLA-4; [9]) was 5.6%, the “CTLA-4+/CD8+ T-cells, mean” value (CTLA-4; [10]) was 11.7% and the “decrease from baseline in CTLA-4+/CD8+ T-cells” value (CTLA-4; single IV dose (0.14, 0.7, 1.4 mg), 48 h) was “approximately 35%”. The “reduction in CTLA-4+/CD8+ T-cells compared to same time point in control group” value (CTLA-4; single IV injection, 48 h) was “approximately 38%”, the “efficacy of low dose relative to high-dose (4 mg) treatment” value (melanoma cells; 0.4 mg PO) was 70% and the survival (melanoma cells; 0.4 mg and 4 mg/mouse PO QD groups) was “significant increase in survival”. The “mice tumor-free for at least 10 days after treatment stopped” value (melanoma cells; 0.4 mg/mouse PO QD for seven days) was 70%, the “mice tumor-free for at least 10 days after treatment stopped” value (melanoma cells; 4 mg/mouse PO QD for seven days) was 90% and the “KLRG-1+/CD8+ T-cells, mean” value (KLRG-1; [2]) was 6.2%. The “KLRG-1+/CD8+ T-cells, mean” value (KLRG-1; [3]) was 4.8%, the “KLRG-1+/CD8+ T-cells, mean” value (KLRG-1; [4]) was 11.4% and the “KLRG-1+/CD8+ T-cells, mean” value (KLRG-1; [5]) was 6.5%. For the same compound, the “KLRG-1+/CD8+ T-cells, mean” value (KLRG-1; [6]) was 3.0%, the “KLRG-1+/CD8+ T-cells, mean” value (KLRG-1; [7]) was 11.7% and the “KLRG-1+/CD8+ T-cells, mean” value (KLRG-1; [8]) was 7.6%. The “KLRG-1+/CD8+ T-cells, mean” value (KLRG-1; [9]) was 2.5%, the “KLRG-1+/CD8+ T-cells, mean” value (KLRG-1; [10]) was 11.3% and the “time of nadir of exhaustion markers after dosing” value (KLRG-1; single dose, KLRG-1, CTLA-4, PD-1) was 48 h.

For O=C(O)[C@H](O)[C@@H](O)C(=O)OCCC(c1ccccc1)c1ccccc1 [Compound C, (2R,3R)-4-(3,3-diphenylpropoxy)-2,3-dihydroxy-4-oxobutanoic acid], the “decrease in FoxP3 positive CD4+ T-cells compared to placebo” value [1] was 59%, the “increase in GrzmB/INFγ double-positive CD8+ T-cells compared to placebo” value [1] was 62% and the “inhibition of CTLA-4 as compared to control” value [1] was 77%. The “inhibition of KLGR-1 as compared to control” value [1] was 70%, the “inhibition of PD-1 as compared to control” value [1] was 70% and the “inhibition of TIM-3 as compared to control” value [1] was 71%. For the same compound, the “KLRG-1+/CD8+ T-cells, mean” value (KLRG-1; 0.025 mg/mouse IV single dose, 24 h) was 4.9%, the “KLRG-1+/CD8+ T-cells, mean” value (KLRG-1; 0.1 mg/mouse IV single dose, 24 h) was 4.1% and the “KLRG-1+/CD8+ T-cells, mean” value (KLRG-1; 0.25 mg/mouse IV single dose, 24 h) was 3.4%. The “KLRG-1+/CD8+ T-cells, mean” value (KLRG-1; 1 mg/mouse IV single dose, 24 h) was 3.3%, the oral pharmacodynamic activity (KLRG-1; 2.5 mg PO single dose) was “not orally effective at the tested dose” and the “KLRG-1+/CD8+ T-cells, mean” value (KLRG-1; 2.5 mg/mouse po single dose, 24 h) was 4.6%. The “decrease in KLRG-1+/CD8+ T-cells compared to baseline” value (KLRG-1; 0.25- and 1-mg IV groups) was “approximately 15%”, the “decrease in KLRG-1+/CD8+ T-cells compared to time match control” value (KLRG-1; 0.25- and 1-mg IV groups) was “approximately 31%” and the “change in KLRG-1+/CD8+ T-cells compared to baseline or control” value (KLRG-1; remaining groups (0.025, 0.1 mg IV, 2.5 mg PO)) was “No meaningful changes”.
